Experiments:
[1] = system: hypoxemia model animals; experiment: Effect on partial pressure value of gases in arterial blood, injection system, Method B (acetic acid induced respiratory insufficiency); assay type: in vivo, rat (Male Wister strain); details: continuous i.v. 0.1 mg/kg/min., 10 min.; for Activity for Decreasing PaCO2: increment PaCO2: PaCO2 after minus before administration; for Activity for Increasing PaO2: increment PaO2: PaO2 after minus before administration
Procedure: Effect on Partial Pressure Value of Gases in Arterial Blood (Injection system) <Method B> Male Wister strain rats (body about 300 g) were anesthetized with halothane inhalant, and then 2.0% acetic acid was […] injected at 0.6 ml/kg to induce a respiratory insufficiency. The animals were intra-peritoneally anesthetized with urethane-α-chloralose, and a cannula was inserted into the femoral artery. After the hypoxemic state (PaO2 : 60-70 mmHg) was observed a compound in accordance with the present invention (test substance) was continuously intravenously injected into these hypoxemia model animals (0.1 mg/kg/min., 10 min.), and then a partial pressure value of gases (PaO2, PaCO2) in arterial blood was immediately determined.

[2] = system: hypoxemia animals; experiment: Effect on partial pressure value of gases in arterial blood, oral administration system, Method B (3 days after acetic acid); assay type: in vivo, rat (Male wistar strain); details: 60 min. after administration
Procedure: Effect on Partial Pressure Value of Gases in Arterial Blood (Oral Administration System)
Male wistar strain rats (body weight about 350 g) were anesthetized with halothane inhalant, and then 2.0% acetic acid were intratrachealy injected at 0.6 ml/kg body to induce a hypoxemia state. In 3 days after injection with 2.0% acetic acid, rats fasted overnight were anesthetized with halothane inhalant, and a cannula inserted into the femoral artery. After these hypoxemia animals (PaO2 : 60-80 mmHg) were recovered from the anesthesia, a compound in accordance with the present invention (test substance, 10 or 30 mg/kg) was orally administered to the animals. At 60 min. after the administration, the partial pressure value of gases (PaO2, PaCO2) in arterial blood was determined.

[3] = system: hypoxemia state rats; experiment: Effect on partial pressure value of gases in arterial blood, oral administration system, Method A (acetic acid induced hypoxemia, about 60 min); assay type: in vivo, rat (Male Wistar strain); details: 60 min. after administration
Procedure: Effect on Partial Pressure Value of Gases in Arterial Blood (Oral Administration System) Method A Male Wistar strain rats (body weight about 250 g) fasted overnight were anesthetized with halothane inhalant, and a cannula then inserted into the femoral artery. After the animals recovered from the anesthesia, they were again anesthetized with halothane inhalant, and then 2.0% acetic acid was […] injected at 0.8 ml/kg to induce a hypoxemia state. After the hypoxemic state (PaO2 :60-80 mmHg) was observed over about 60 min., a compound in accordance with the present invention (test substance, 10 or 30 mg/kg) was orally administered to the animals. Then 60 min. after the administration, the partial pressure value of gases (PaO2, PaCO2) in arterial blood was determined.

[4] = system: hypoxemia model animals; experiment: Effect on partial pressure value of gases in arterial blood, injection system, Method A (carbon powder induced hypoxemia); assay type: in vivo, rat (Male Wister strain); details: continuous i.v. 0.1 mg/kg/min., 10 min.; for Activity for Decreasing PaCO2: increment PaCO2: PaCO2 after minus before administration; for Activity for Increasing PaO2: increment PaO2: PaO2 after minus before administration
Procedure: Effect on Partial Pressure Value of Gases in Arterial Blood (Injection system)
Male Wister strain rats (body weight about 300 g) were anesthetized intra-peritoneally with urethane, and a cannula was inserted into the respiratory tract and the femoral artery, respectively. A suspension (30-100 μm, 10 mg/ml) of carbon powder in a corn oil was intratrachealy injected to induce a hypoxemia state (PaO2; 50-60 mmHg). A compound in accordance with the present invention was continuously intravenously injected into these hypoxemia model animals (0.1 mg/kg/min., 10 min.), and then a partial pressure value of gases (PaO2, PaCO2) in arterial blood was immediately determined.

Structure (SMILES) | Activity for Decreasing PaCO2: increment PaCO2 [1] | Activity for Increasing PaO2: increment PaO2 [1] | further results
C=CCNc1nc(N(CCOCC)CCOCC)c2ccn(C)c2n1 [Compound 181] | +1.2 mmHg | +6.4 mmHg | –
C=CCNc1nc(N[C@H]2CC[C@H](OCCOCC)CC2)c2ccn(C)c2n1 [Compound 187] | -14.7 mmHg | +13.7 mmHg | Activity for Decreasing PaCO2: increment PaCO2 ([2]; 10 mg/kg): +6.9 mmHg; Activity for Increasing PaO2: increment PaO2 ([2]; 10 mg/kg): +16.0 mmHg
C=CCNc1nc(NC(C)c2ccccc2)c2ccn(C)c2n1.Cl (racemic) [Compound 156, (±)-2-allylamino-7-methyl-4-(1-phenylethylamino)-7H-pyrrolo[2,3-d]pyrimidine hydrochloride] | -9.1 mmHg | – | Activity for Decreasing PaCO2: increment PaCO2 ([3]; 30 mg/kg): -8.1 mmHg; Activity for Increasing PaO2: increment PaO2 ([3]; 30 mg/kg): +7.8 mmHg
C=CCNc1nc(N[C@H]2CC[C@@H](OC)CC2)c2ccn(C)c2n1 [Compound 185] | -6.0 mmHg | +11.7 mmHg | –
C=CCNc1nc(NC(C)(C)C)c2ccn(C)c2n1 [Compound 178] | -16.4 mmHg | +16.4 mmHg | Activity for Decreasing PaCO2: increment PaCO2 ([2]; 10 mg/kg): -6.6 mmHg; Activity for Increasing PaO2: increment PaO2 ([2]; 10 mg/kg): +17.0 mmHg
C=CCNc1nc(N[C@H]2CC[C@H](OC)CC2)c2ccn(C)c2n1 [Compound 186] | -15.4 mmHg | +12.3 mmHg | Activity for Decreasing PaCO2: increment PaCO2 ([2]; 10 mg/kg): -5.3 mmHg; Activity for Increasing PaO2: increment PaO2 ([2]; 10 mg/kg): +14.9 mmHg
C=CCNc1nc(N2CCC(OC)CC2)c2ccn(C)c2n1 [Compound 180] | -0.5 mmHg | +6.5 mmHg | –
C=CCNc1nc(NCC2CCCO2)c2ccn(C)c2n1 (stereo not drawn) [Compound 179] | +2.4 mmHg | +8.5 mmHg | –
C=CCNc1nc(N(C)[C@H]2CC[C@H](OC)CC2)c2ccn(C)c2n1 [Compound 189] | -6.0 mmHg | +7.3 mmHg | –
C=CCNc1nc(NC(C)C)c2ccn(C)c2n1 [Compound 176] | -14.8 mmHg | +22.2 mmHg | Activity for Decreasing PaCO2: increment PaCO2 ([2]; 10 mg/kg): -5.4 mmHg; Activity for Increasing PaO2: increment PaO2 ([2]; 10 mg/kg): +11.6 mmHg
C=CCNc1nc(N2CCCCC2C)c2ccn(C)c2n1 (stereo not drawn) [Compound 182] | – | – | Activity for Decreasing PaCO2: increment PaCO2 ([2]; 30 mg/kg): -2.2 mmHg; Activity for Increasing PaO2: increment PaO2 ([2]; 30 mg/kg): +3.3 mmHg
C=CCNc1nc(NCCc2ccc(OC)cc2)c2ccn(C)c2n1 [Compound 175] | -13.1 mmHg | +15.2 mmHg | –
C=CCNc1nc(NCCCc2ccco2)c2ccn(C)c2n1 [Compound 173] | -13.1 mmHg | +12.0 mmHg | Activity for Decreasing PaCO2: increment PaCO2 ([3]; 10 mg/kg): -3.7 mmHg; Activity for Increasing PaO2: increment PaO2 ([3]; 10 mg/kg): +4.2 mmHg
C=CCNc1nc(N(C)CCc2ccccc2)c2ccn(C)c2n1 [Compound 167] | -6.6 mmHg | – | –
C=CCNc1nc(N2CCN(C(c3ccc(F)cc3)c3ccc(F)cc3)CC2)c2ccn(CC=C)c2n1 [Compound 143] | – | – | Activity for Decreasing PaCO2: increment PaCO2 [4]: +1.1 mmHg; Activity for Increasing PaO2: increment PaO2 [4]: +5.0 mmHg
C=CCNc1nc(N2CCC(OC(C)=O)CC2)c2ccn(C)c2n1 [Compound 119] | – | – | Activity for Decreasing PaCO2: increment PaCO2 [4]: -2.6 mmHg; Activity for Increasing PaO2: increment PaO2 [4]: +7.1 mmHg
C=CCNc1nc(N(C)C)c2ccn(C)c2n1 [Compound 165] | +1.1 mmHg | +7.9 mmHg | Activity for Decreasing PaCO2: increment PaCO2 ([3]; 30 mg/kg): -3.4 mmHg; Activity for Increasing PaO2: increment PaO2 ([3]; 30 mg/kg): +8.5 mmHg
C=CCNc1nc(NCc2ccco2)c2ccn(C)c2n1 [Compound 172] | -2.8 mmHg | +12.3 mmHg | –
C=CCNc1nc(N2CCN(C(c3ccc(F)cc3)c3ccc(F)cc3)CC2)c2ccn(C)c2n1 [Compound 133] | – | – | Activity for Decreasing PaCO2: increment PaCO2 [4]: -0.6 mmHg; Activity for Increasing PaO2: increment PaO2 [4]: +6.9 mmHg
C=CCNc1nc(N2C(C)CCCC2C)c2ccn(C)c2n1 (stereo not drawn) [Compound 183] | -4.6 mmHg | +10.7 mmHg | –
C=CCNc1nc(NCc2cccs2)c2ccn(C)c2n1 [Compound 174] | -2.9 mmHg | +5.8 mmHg | –
C=CCNc1nc(N2CCOCC2)c2ccn(C)c2n1 [Compound 124] | -4.0 mmHg | +5.7 mmHg | Activity for Decreasing PaCO2: increment PaCO2 ([2]; 30 mg/kg): -2.5 mmHg; Activity for Increasing PaO2: increment PaO2 ([2]; 30 mg/kg): +8.0 mmHg
C=CCNc1nc(NC(COC)COC)c2ccn(C)c2n1 [Compound 184] | -0.7 mmHg | +7.8 mmHg | –
